Source: ChEMBL document CHEMBL1201862, “PubChem BioAssay data set” (2004)
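How tested: cells in 96-well plates exposed to compound for 48 hours at five concentrations. GI50 marks 50% less growth.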 Active and inactive are the calls of the source. Rule as the data show it: active = GI50 up to about 1.1 µM and inactive = higher.

Tests used:
Experiment in all cases: growth of human tumour cells (NCI), 48 h
786-0 = tested on: 786-0
ACHN = tested on: ACHN
HOP-92 = tested on: HOP-92
IGROV-1 = tested on: IGROV-1
LOX IMVI = tested on: LOX IMVI
M14 = tested on: M14
MDA-MB-231 = tested on: MDA-MB-231
NCI-H226 = tested on: NCI-H226
NCI-H23 = tested on: NCI-H23
NCI-H460 = tested on: NCI-H460
NCI-H522 = tested on: NCI-H522
OVCAR-5 = tested on: OVCAR-5
OVCAR-8 = tested on: OVCAR-8
RXF 393 = tested on: RXF 393
SF-268 = tested on: SF-268
SNB-75 = tested on: SNB-75
SW-620 = tested on: SW-620
U-251 = tested on: U-251
UACC-257 = tested on: UACC-257
A498 = tested on: A498

Measured: GI50

OCCOCCN1CCN(c2nc(N3CCCC3)c3nc(Cl)c(NCc4ccccc4)nc3n2)CC1
inactive: 786-0 13 µM | ACHN 14 µM | HOP-92 12.9 µM | IGROV-1 18.3 µM | LOX IMVI 10.5 µM | M14 11.6 µM | MDA-MB-231 16.9 µM | NCI-H226 20.8 µM | NCI-H23 16.3 µM | NCI-H460 11.5 µM | NCI-H522 15.4 µM | OVCAR-5 15.1 µM | OVCAR-8 17.4 µM | RXF 393 1.98 µM | SF-268 16.5 µM | SNB-75 21 µM | SW-620 17.7 µM | U-251 12 µM | UACC-257 14.1 µM

COC1=C(Br)[C@H](O)[C@@]2(C=C1Br)CC(C(=O)NCCCOc1c(Br)cc(C(O)CNC(C)=O)cc1Br)=NO2 (some centres not stated) [APLYSINAMISINE III]
inactive: 786-0 > 10 µM | A498 > 10 µM | ACHN > 10 µM | IGROV-1 > 10 µM | LOX IMVI > 10 µM | M14 8.73 µM | MDA-MB-231 > 10 µM | NCI-H226 > 10 µM | NCI-H23 > 10 µM | NCI-H460 > 10 µM | NCI-H522 4.17 µM | OVCAR-5 > 10 µM | OVCAR-8 > 10 µM | RXF 393 > 10 µM | SF-268 > 10 µM | SNB-75 2.79 µM | SW-620 > 10 µM | U-251 > 10 µM | UACC-257 > 10 µM

Cc1ccc([N+](=O)[O-])cc1S(=O)(=O)Nc1ccc(C(=O)/C=C/c2ccccc2)cc1
inactive: 786-0 16.7 µM | ACHN 13.2 µM | HOP-92 15.9 µM | IGROV-1 18.7 µM | LOX IMVI 19 µM | M14 20 µM | MDA-MB-231 16.9 µM | NCI-H226 28.6 µM | NCI-H23 16.7 µM | NCI-H460 18.1 µM | NCI-H522 20.2 µM | OVCAR-5 25.6 µM | OVCAR-8 23.2 µM | RXF 393 11.4 µM | SF-268 24.3 µM | SNB-75 17.3 µM | SW-620 24.7 µM | UACC-257 17.3 µM

COc1ccc(/C=C(\C#N)c2nc(-c3cc4ccccc4oc3=O)cs2)cc1
inactive: 786-0 19.3 µM | ACHN 19 µM | HOP-92 18.3 µM | IGROV-1 22.2 µM | LOX IMVI 30.5 µM | M14 24.8 µM | MDA-MB-231 14.8 µM | NCI-H226 31.6 µM | NCI-H460 21.4 µM | NCI-H522 19.4 µM | OVCAR-5 51.1 µM | OVCAR-8 18.1 µM | RXF 393 21.1 µM | SF-268 17.9 µM | SNB-75 23.2 µM | SW-620 19.7 µM | U-251 13.5 µM | UACC-257 31.8 µM

COc1cc(N(CCC#N)CCC#N)ccc1C(/N=N/c1ccccc1C)=N\NC(=O)c1ccc(C)cc1
inactive: 786-0 36.6 µM | HOP-92 53.8 µM | IGROV-1 75 µM | LOX IMVI 40.8 µM | M14 > 100 µM | MDA-MB-231 25.5 µM | NCI-H226 > 100 µM | NCI-H23 91.8 µM | NCI-H460 73.5 µM | NCI-H522 25.2 µM | OVCAR-5 > 100 µM | OVCAR-8 71 µM | RXF 393 > 100 µM | SF-268 64.4 µM | SW-620 72.9 µM | U-251 42.3 µM | UACC-257 61.2 µM

COc1cc(C2C(C#N)=C(N)OC3=C2CCS(=O)(=O)c2ccc(C)cc23)cc(OC)c1OC (configuration not stated)
inactive: 786-0 > 100 µM | A498 > 100 µM | ACHN > 100 µM | HOP-92 > 100 µM | IGROV-1 > 100 µM | LOX IMVI > 100 µM | M14 > 100 µM | MDA-MB-231 > 100 µM | NCI-H226 > 100 µM | NCI-H23 > 100 µM | NCI-H460 > 100 µM | NCI-H522 > 100 µM | OVCAR-5 > 100 µM | OVCAR-8 > 100 µM | SF-268 > 100 µM | SNB-75 > 100 µM | SW-620 > 100 µM | U-251 > 100 µM | UACC-257 > 100 µM

O=C1/C(=C/c2ccco2)NC(=S)N1CN1CCOCC1
inactive: 786-0 > 100 µM | A498 > 100 µM | ACHN > 100 µM | HOP-92 > 100 µM | IGROV-1 > 100 µM | LOX IMVI > 100 µM | M14 > 100 µM | MDA-MB-231 > 100 µM | NCI-H226 > 100 µM | NCI-H23 > 100 µM | OVCAR-5 > 100 µM | OVCAR-8 > 100 µM | SF-268 > 100 µM | SNB-75 > 100 µM | SW-620 > 100 µM | U-251 > 100 µM | UACC-257 > 100 µM

O=C(O)C(Cc1ccccc1)Cc1ccccc1
inactive: 786-0 > 100 µM | A498 > 100 µM | ACHN > 100 µM | IGROV-1 > 100 µM | LOX IMVI > 100 µM | M14 > 100 µM | MDA-MB-231 > 100 µM | NCI-H226 > 100 µM | NCI-H23 > 100 µM | NCI-H460 > 100 µM | NCI-H522 > 100 µM | OVCAR-5 > 100 µM | OVCAR-8 > 100 µM | RXF 393 > 100 µM | SF-268 > 100 µM | SNB-75 > 100 µM | SW-620 > 100 µM | U-251 > 100 µM | UACC-257 > 100 µM

CN(Cc1ccccc1)c1cc(=O)n(C)c(=O)[nH]1
inactive: 786-0 > 100 µM | A498 58.2 µM | ACHN > 100 µM | HOP-92 > 100 µM | LOX IMVI > 100 µM | M14 > 100 µM | MDA-MB-231 > 100 µM | NCI-H226 > 100 µM | NCI-H23 > 100 µM | NCI-H460 > 100 µM | NCI-H522 > 100 µM | OVCAR-5 > 100 µM | OVCAR-8 > 100 µM | SF-268 > 100 µM | SW-620 > 100 µM | U-251 > 100 µM | UACC-257 > 100 µM

CCCCCCCCCCCCCCCCCCNC(=S)N/C=C1/C(=O)C=C(C)OC1=O
inactive: 786-0 29.6 µM | ACHN 22.9 µM | HOP-92 27.3 µM | IGROV-1 16.9 µM | LOX IMVI 36.9 µM | M14 18 µM | MDA-MB-231 33 µM | NCI-H226 32.9 µM | NCI-H23 22.8 µM | NCI-H460 13.1 µM | OVCAR-5 18.4 µM | OVCAR-8 23.8 µM | SNB-75 14.3 µM | SW-620 27.4 µM | U-251 31.3 µM | UACC-257 27.5 µM

Cn1c(S)nc2c(Cl)cc(Cl)cc2c1=O
inactive: 786-0 > 100 µM | ACHN > 100 µM | HOP-92 63.5 µM | IGROV-1 80.5 µM | LOX IMVI > 100 µM | M14 > 100 µM | MDA-MB-231 > 100 µM | NCI-H23 > 100 µM | NCI-H460 > 100 µM | NCI-H522 44.1 µM | OVCAR-5 > 100 µM | OVCAR-8 > 100 µM | RXF 393 > 100 µM | SF-268 > 100 µM | SNB-75 55.3 µM | SW-620 > 100 µM | U-251 > 100 µM | UACC-257 > 100 µM
